Target: PIK3CD (Human) (UniProt O00329)
Experiment: Enzyme Assay

Chain of PIK3CD (Human) (O00329 whole entry, looked up): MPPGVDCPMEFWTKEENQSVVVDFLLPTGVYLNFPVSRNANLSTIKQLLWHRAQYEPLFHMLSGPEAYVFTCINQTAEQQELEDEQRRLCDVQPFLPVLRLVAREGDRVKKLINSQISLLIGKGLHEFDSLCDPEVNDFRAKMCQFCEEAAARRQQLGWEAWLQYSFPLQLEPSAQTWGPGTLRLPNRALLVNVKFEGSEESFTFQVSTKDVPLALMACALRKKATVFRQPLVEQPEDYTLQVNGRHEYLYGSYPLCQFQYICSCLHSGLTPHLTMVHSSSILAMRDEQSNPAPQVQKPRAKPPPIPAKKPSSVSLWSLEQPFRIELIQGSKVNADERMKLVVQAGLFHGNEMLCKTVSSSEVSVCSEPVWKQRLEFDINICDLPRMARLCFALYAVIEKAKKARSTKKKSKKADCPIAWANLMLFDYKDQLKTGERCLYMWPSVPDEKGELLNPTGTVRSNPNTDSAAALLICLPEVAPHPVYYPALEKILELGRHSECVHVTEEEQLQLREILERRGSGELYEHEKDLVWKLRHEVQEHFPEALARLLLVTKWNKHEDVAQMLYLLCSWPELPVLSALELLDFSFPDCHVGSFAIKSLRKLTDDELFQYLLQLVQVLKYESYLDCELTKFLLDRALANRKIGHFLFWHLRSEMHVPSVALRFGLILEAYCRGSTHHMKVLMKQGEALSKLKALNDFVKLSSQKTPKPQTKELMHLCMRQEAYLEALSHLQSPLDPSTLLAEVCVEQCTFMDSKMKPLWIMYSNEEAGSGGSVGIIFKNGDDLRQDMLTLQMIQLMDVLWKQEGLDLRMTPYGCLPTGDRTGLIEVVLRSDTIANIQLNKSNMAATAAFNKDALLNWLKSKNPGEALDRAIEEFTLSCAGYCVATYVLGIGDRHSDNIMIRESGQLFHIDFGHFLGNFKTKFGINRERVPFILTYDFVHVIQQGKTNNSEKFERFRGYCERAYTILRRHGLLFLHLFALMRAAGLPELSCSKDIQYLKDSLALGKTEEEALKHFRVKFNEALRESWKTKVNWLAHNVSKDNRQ

IC50 [µM] | Structure (SMILES)
0.001 to 0.01 | C[C@H](Nc1nc(N)nc(N)c1C#N)c1nc2c(C#N)cc(F)cc2c(=O)n1-c1ccccc1
0.001 to 0.01 | C[C@H](Nc1nc(N)nc(N)c1C(N)=O)c1nc2cccc(Cl)c2c(=O)n1-c1cc(F)cc(F)c1
0.001 to 0.01 | COc1cc(-n2c([C@H](C)Nc3nc(N)nc(N)c3C#N)nc3cccc(Cl)c3c2=O)ccc1F
0.001 to 0.01 | C[C@H](Nc1nc(N)nc(N)c1C#N)c1nc2cccc(Cl)c2c(=O)n1-c1cccc(C#N)c1
0.01 to 0.05 | CC[C@H](Nc1nc(N)nc(N)c1C#N)c1nc2c(Cl)ccc(F)c2c(=O)n1-c1cc(F)cc(F)c1
0.001 to 0.01 | Cc1ccc(F)c2c(=O)n(-c3cc(F)cc(F)c3)c([C@H](C)Nc3nc(N)nc(N)c3C#N)nc12
0.01 to 0.05 | CC[C@H](Nc1nc(N)nc(N)c1C#N)c1nc2c(C)ccc(F)c2c(=O)n1-c1cc(F)cc(F)c1
0.01 to 0.05 | Cc1cccc2c(=O)n(-c3cccc(C(F)(F)F)c3)c([C@H](C)Nc3nc(N)nc(N)c3C#N)nc12
0.01 to 0.05 | C[C@H](Nc1nc(N)nc(N)c1C#N)c1nc2cccc(C(N)=O)c2c(=O)n1-c1cc(F)cc(F)c1
0.01 to 0.05 | CC[C@H](Nc1nc(N)nc(N)c1C#N)c1nc2c(F)cc(F)cc2c(=O)n1-c1cc(F)cc(F)c1
0.001 to 0.01 | C[C@H](Nc1nc(N)nc(N)c1C#N)c1nc2cccc(C#N)c2c(=O)n1-c1ccccc1
≤ 0.001 | Cc1cccc2nc([C@H](C)Nc3nc(N)nc(N)c3C#N)n(-c3cc(F)cc(F)c3)c(=O)c12
≤ 0.001 | C[C@H](Nc1nc(N)nc(N)c1C(N)=O)c1nc2cccc(Cl)c2c(=O)n1-c1ccccc1
0.01 to 0.05 | C[C@H](Nc1nc(N)nc(N)c1C#N)c1nc2ccccc2c(=O)n1-c1cc(F)cc(F)c1
0.001 to 0.01 | Cc1cccc2nc([C@H](C)Nc3nc(N)nc(N)c3C#N)n(-c3cc(F)cc(C#N)c3)c(=O)c12
0.001 to 0.01 | C[C@H](Nc1nc(N)nc(N)c1C#N)c1nc2c(F)ccc(Cl)c2c(=O)n1-c1cccc(C#N)c1
0.01 to 0.05 | C[C@H](Nc1nc(N)nc(N)c1C#N)c1nc2c(F)ccc(C#N)c2c(=O)n1-c1cc(F)cc(F)c1
≤ 0.001 | C[C@H](Nc1nc(N)nc(N)c1C#N)c1nc2cccc(Cl)c2c(=O)n1-c1cccc(Cl)c1
0.001 to 0.01 | C[C@H](Nc1nc(N)nc(N)c1C#N)c1nc2cccc(Cl)c2c(=O)n1-c1cc(Cl)cc(C(F)F)c1
0.001 to 0.01 | C[C@H](Nc1nc(N)nc(N)c1Cl)c1nc2c(F)ccc(Cl)c2c(=O)n1-c1ccccc1
0.001 to 0.01 | C[C@H](Nc1nc(N)nc(N)c1C#N)c1nc2c(Cl)cccc2c(=O)n1-c1ccccc1
0.001 to 0.01 | CC[C@H](Nc1nc(N)nc(N)c1C#N)c1nc2cccc(Cl)c2c(=O)n1-c1cc(F)cc(F)c1

IC50 [µM] | Structure (SMILES)
0.001 to 0.01 | COc1cc(OC)cc(-n2c([C@H](C)Nc3nc(N)nc(N)c3C#N)nc3cccc(Cl)c3c2=O)c1
0.01 to 0.05 | C[C@H](Nc1nc(N)nc(N)c1C#N)c1nc2c(C(F)F)cccc2c(=O)n1-c1ccccc1
0.001 to 0.01 | C[C@H](Nc1nc(N)nc(N)c1C#N)c1nc2c(Cl)ccc(F)c2c(=O)n1-c1cc(F)cc(F)c1
0.001 to 0.01 | C[C@H](Nc1nc(N)nc(N)c1C#N)c1nc2c(C#N)cccc2c(=O)n1-c1cccc(C(F)F)c1
0.01 to 0.05 | CCc1cccc2c(=O)n(-c3cc(F)cc(F)c3)c([C@H](C)Nc3nc(N)nc(N)c3C#N)nc12
0.01 to 0.05 | C[C@H](Nc1nc(N)nc(N)c1C#N)c1nc2c(F)cc(F)cc2c(=O)n1-c1cc(F)cc(F)c1
0.001 to 0.01 | C[C@H](Nc1nc(N)nc(N)c1C#N)c1nc2c(C#N)cccc2c(=O)n1-c1cc(F)cc(F)c1
0.001 to 0.01 | C[C@H](Nc1nc(N)nc(N)c1C#N)c1nc2c(F)ccc(F)c2c(=O)n1-c1cccc(F)c1
0.001 to 0.01 | CC(C)C[C@H](Nc1nc(N)nc(N)c1C#N)c1nc2cccc(Cl)c2c(=O)n1-c1cc(F)cc(F)c1
0.01 to 0.05 | CC[C@H](Nc1nc(N)nc(N)c1C#N)c1nc2ccc(F)c(F)c2c(=O)n1-c1cc(F)cc(F)c1
0.001 to 0.01 | C[C@H](Nc1nc(N)nc(N)c1C#N)c1nc2cccc(Cl)c2c(=O)n1-c1cccc(C(F)(F)F)c1
0.001 to 0.01 | Cc1ccc(Cl)c2c(=O)n(-c3cc(F)cc(F)c3)c([C@H](C)Nc3nc(N)nc(N)c3C#N)nc12
0.01 to 0.05 | CC[C@H](Nc1nc(N)nc(N)c1C#N)c1nc2ccccc2c(=O)n1-c1cc(F)cc(F)c1
0.01 to 0.05 | CC[C@H](Nc1nc(N)nc(N)c1C#N)c1nc2c(Cl)cccc2c(=O)n1-c1cc(F)cc(F)c1
≤ 0.001 | Cc1ccc(F)c2nc([C@H](C)Nc3nc(N)nc(N)c3C#N)n(-c3cccc(C#N)c3)c(=O)c12
≤ 0.001 | Cc1ccc(F)c2nc([C@H](C)Nc3nc(N)nc(N)c3C#N)n(-c3cc(F)cc(F)c3)c(=O)c12
≤ 0.001 | C[C@H](Nc1nc(N)nc(N)c1C#N)c1nc2cccc(O)c2c(=O)n1-c1ccccc1
0.001 to 0.01 | CC(C)C[C@H](Nc1nc(N)nc(N)c1C#N)c1nc2cccc(Cl)c2c(=O)n1-c1cccc(F)c1
0.001 to 0.01 | C[C@H](Nc1nc(N)nc(N)c1C(N)=O)c1nc2cccc(Cl)c2c(=O)n1-c1cccc(C(F)F)c1
0.001 to 0.01 | C[C@H](Nc1nc(N)nc(N)c1C#N)c1nc2cccc(F)c2c(=O)n1-c1cccc(C(F)(F)F)c1
≤ 0.001 | C[C@H](Nc1nc(N)nc(N)c1C#N)c1nc2c(F)ccc(F)c2c(=O)n1-c1ccccc1
0.001 to 0.01 | C[C@H](Nc1nc(N)nc(N)c1C#N)c1nc2cccc(F)c2c(=O)n1-c1cc(F)cc(F)c1

IC50 [µM] | Structure (SMILES)
≤ 0.001 | C[C@H](Nc1nc(N)nc(N)c1C#N)c1nc2cccc(C(F)F)c2c(=O)n1-c1ccccc1
0.001 to 0.01 | C[C@H](Nc1nc(N)nc(N)c1C#N)c1nc2cccc(S(C)(=O)=O)c2c(=O)n1-c1c(F)cccc1F
0.01 to 0.05 | C[C@H](Nc1nc(N)nc(N)c1C#N)c1nc2c(C#N)cc(F)cc2c(=O)n1-c1cc(F)cc(F)c1
≤ 0.001 | Cc1cccc2c(=O)n(-c3cccc(Cl)c3)c([C@H](C)Nc3nc(N)nc(N)c3C#N)nc12
0.001 to 0.01 | CC[C@H](Nc1nc(N)nc(N)c1C#N)c1nc2cccc(C(F)F)c2c(=O)n1-c1cc(F)cc(F)c1
0.001 to 0.01 | C[C@H](Nc1nc(N)nc(N)c1Cl)c1nc2cccc(S(C)(=O)=O)c2c(=O)n1-c1cccc(F)c1
0.01 to 0.05 | Cc1ccc(F)c2c(=O)n(-c3cc(F)cc(C#N)c3)c([C@H](C)Nc3nc(N)nc(N)c3C#N)nc12
0.001 to 0.01 | C[C@H](Nc1nc(N)nc(N)c1C#N)c1nc2cccc(F)c2c(=O)n1-c1cccc(F)c1
≤ 0.001 | C[C@H](Nc1nc(N)nc(N)c1C#N)c1nc2c(F)ccc(Cl)c2c(=O)n1-c1cc(F)cc(F)c1
≤ 0.001 | C[C@H](Nc1nc(N)nc(N)c1C#N)c1nc2cccc(Cl)c2c(=O)n1-c1cccc(C(F)F)c1
0.001 to 0.01 | COc1cc(F)cc(-n2c([C@H](C)Nc3nc(N)nc(N)c3C#N)nc3cccc(Cl)c3c2=O)c1
≤ 0.001 | C[C@H](Nc1nc(N)nc(N)c1C#N)c1nc2cccc(Br)c2c(=O)n1-c1cccc(F)c1
0.001 to 0.01 | C[C@H](Nc1nc(N)nc(N)c1C#N)c1nc2cccc(Cl)c2c(=O)n1-c1c(F)cccc1F
0.001 to 0.01 | C[C@H](Nc1nc(N)nc(N)c1C#N)c1nc2cccc(F)c2c(=O)n1-c1cccc(CC(F)F)c1
≤ 0.001 | C[C@H](Nc1nc(N)nc(N)c1C#N)c1nc2c(Cl)ccc(Cl)c2c(=O)n1-c1ccccc1
≤ 0.001 | CC(C)[C@H](Nc1nc(N)nc(N)c1C#N)c1nc2cccc(Cl)c2c(=O)n1-c1ccccc1
0.001 to 0.01 | C[C@H](Nc1nc(N)nc(N)c1C#N)c1nc2c(F)cccc2c(=O)n1-c1cc(F)cc(F)c1
≤ 0.001 | C[C@H](Nc1nc(N)nc(N)c1C#N)c1nc2cccc(Cl)c2c(=O)n1-c1cc(F)cc(C(F)F)c1
0.001 to 0.01 | C[C@H](Nc1nc(N)nc(N)c1C#N)c1nc2cccc(C(F)F)c2c(=O)n1-c1cc(F)cc(F)c1
0.001 to 0.01 | C[C@H](Nc1nc(N)nc(N)c1C#N)c1nc2c(Cl)cccc2c(=O)n1-c1cc(F)cc(F)c1
0.001 to 0.01 | C[C@H](Nc1nc(N)nc(N)c1C#N)c1nc2cccc(C(F)F)c2c(=O)n1-c1cccc(C#N)c1

— the Kinase Knowledgebase extract (Sharma et al. 2016)
